Laboratory results from patent publication US8383601B2, “Tissue specific gene therapy treatment” (Thomas Jefferson University, priority 2006, dated 2013).
Where no end group is shown, it is not given here.

Experiments:
HCAEC = experiment: S100A1 overexpression and NO production in HCAEC; assay type: cell-based, human; conditions: HCAEC pre-incubated with 10^−4 M 20 minutes prior to ACh
Method: S100A1 overexpression and NO production in HCAEC—S100A1 overexpression in HCAEC was achieved by electrical transfection of the plasmid pAdTrack-S100A1 (10 μg), which encodes for GFP and S100A1 both driven by individual cytomegalovirus (CMV) promoters. PBS and the plasmid pAdTrack (10 μg) were used as controls. 500,000 HCAEC were used for each transfection using Nucleofactor® (AMAXA biosystems) according to the manufacturers instructions and plated on 6 well dishes. 18 hours after transfection cells were stimulated using 10^−5M ACh or PBS for 1 hour. […] NO in the supernatant was measured indirectly using the Nitrate/Nitrite fluorometric assay kit (Cayman, Chemical) according to company recommendations. Transfection was controlled by GFP expression as described previously and cells were harvested for mRNA isolation. Experiments were run in triplicate and 3 individual experiments were performed.

mouse thoracic aorta = experiment: In vitro physiology: relaxation/contraction response of thoracic aorta rings
Description: In Vitro physiology —The relaxation/contraction response of thoracic aortas of WT or SKO mice was examined using a commercially available mounting apparatus attached to a force transducer (ADInstruments). […] Data were normalized to the PE-induced EC50 contraction which were similar between all aorta tested.

[1] = test system: endothelial surface of thoracic aorta; experiment: NO release from mouse aorta; conditions: ACh 10^−5 M
Method: NO release from mouse aorta—NO release from the endothelial surface of aorta was measured in vitro using an Apollo 4000 “Free Radical Analyzer” (WPI, Sarasota, Fla.) as previously described with some modifications.^52 Briefly, thoracic aorta of WT (n=4) and SKO (n=4) mice were carefully isolated and pinned down in KH solution after connective tissue was thoroughly removed. NO was measured under baseline conditions as well as after ACh stimulation (10^−5 M). Two measurements were recorded per animal and condition and NO values were normalized to the weight of the vascular tissue.

[2] = test system: rat MI model (chronic HF); experiment: Catheter-based in vivo hemodynamic measurements in post-MI HF rats; conditions: mean ± SEM
Method: (§1) Rat MI model and cardiac gene delivery—All animal procedures and experiments were performed in accordance with the guidelines of the IACUC of Thomas Jefferson University. MI was induced as described previously using a model of cryoinfarction that produces a highly reproducible loss of myocardium^13. Briefly, anesthetized adult male (250-300 g) rats were intubated and mechanically ventilated and anaesthesia was maintained using a 2% isoflurane (v/v) oxygen mixture. The heart was exposed through a median sternotomy and the pericardium was opened. A 6-0 suture was placed at the apex of the LV. An 8 mm diameter cylindrical stamp was cooled in liquid nitrogen and then pressed on the LV free wall. Cryothermia was applied by use of three freeze cycles of 1 min each that was interrupted by one minute thawing intervals^13,15.
Myocardial gene transfer to 10 week post-MI rats was achieved as previously described^13,15 with some modifications. Briefly, under general anesthesia (2% isoflurane, v/v) a midline cervical incision was made and the animal was cooled to 29° C. using ice packs. A P-50 catheter (Becton Dickinson, Sparks, Md.) was advanced into the aortic root via the right carotid artery and the ascending aorta was looped using 2-0 silk. 1.2 mg adenosine was injected into the right ventricle using a 30½ G needle. Next, the ascending aorta was clamped and 2.5×10^11 particles of the AAV construct and 8 μg of substance P (Sigma) were rapidly injected into the aortic root allowing for coronary perfusion. After 2 min the aortic clamp was released, a bolus of dobutamine (30 μg; intra-arterial) was administered and the animal was re-warmed using a heating pad. The incision was closed and animals were transferred back to their cages receiving appropriate analgesia. […]
Catheter-based in vivo hemodynamic measurements—Cardiac function was measured 8 weeks following gene therapy (18 weeks after MI) in anesthetized rats (2% isoflurane; v/v) using 2 F pressure catheter (SPR-320; Millar instruments, Houston, Tex.). The pressure transducer was placed into the LV cavity through the right carotid artery and the right external jugular vein was cannulated with a P-10 catheter (Becton Dickinson, Sparks, Md.) that was used for isoproterenol administration (333 ng/kg BW) as previously described^13,15.

[3] = test system: rat MI model (chronic HF); experiment: Echocardiography of global cardiac function in post-MI HF rats; assay type: in vivo
Method: as §1
Myocardial gene transfer to 10 week post-MI rats was achieved as previously described^13,15 with some modifications. […]
Echocardiography—To measure global cardiac function, echocardiography was performed 10 and 18 weeks post-MI by use of the VisualSONICS VeVo 770 imaging system with a 710 scanhead in anesthetized animals (2% isoflurane, v/v). The internal diameter of the LV was measured in the short-axis view from M-mode recordings in end diastole and end systole. […]

[4] = test system: rat MI model (chronic HF); experiment: Heart weight to body weight ratio in post-MI HF rats; assay type: in vivo; conditions: 18 weeks post-MI; mean ± SEM
Method: Myocardial gene transfer to 10 week post-MI rats was achieved as previously described^13,15 with some modifications. Briefly, under general anesthesia (2% isoflurane, v/v) a midline cervical incision was made and the animal was cooled to 29° C. using ice packs. A P-50 catheter (Becton Dickinson, Sparks, Md.) was advanced into the aortic root via the right carotid artery and the ascending aorta was looped using 2-0 silk. 1.2 mg adenosine was injected into the right ventricle using a 30½ G needle. Next, the ascending aorta was clamped and 2.5×10^11 particles of the AAV construct and 8 μg of substance P (Sigma) were rapidly injected into the aortic root allowing for coronary perfusion. […]

[5] = test system: adult rat ventricular cardiomyocytes; experiment: Diastolic cell length of isolated cardiomyocytes; assay type: cell-based; conditions: 2 hrs after cardiomyocyte isolation, 3 animals per group, 18 weeks post-MI; mean ± SEM
Method: Isolation of adult rat ventricular cardiomyocytes—Ca^2+-tolerant adult cardiomyocytes were isolated from LVs 8 weeks after gene delivery (18 weeks post-MI) by a standard enzymatic digestion procedure and cultivated as described^13,15. […] Length of isolated cardiomyocytes was determined on enlarged digital photos using Olympus Fluoview 4.3 software.

[6] = test system: adult rat ventricular cardiomyocytes; experiment: Ca2+-transient analyses and contractile parameters of isolated adult rat cardiomyocytes; assay type: cell-based; conditions: 8 weeks after treatment; 1 Hz, 2.5 mM [Ca2+]e; for AAV6/S100A1 infected (green) cells only
[7] = test system: LV mRNA (S100A1, SERCA2a, PLB, ANF, TGFβ1, Collagen I); experiment: Real-time RT-PCR of cardiac expression of key genes in LV; assay type: in vivo, rat; conditions: 18 weeks post-MI
Method: RNA isolation and real-time RT-PCR—Total RNA was isolated from LV as well as from isolated cardiomyocytes using either Ultraspec® (Biotec) or Trizol® (Life Technologies). cDNA was synthesized by reverse transcription of the RNA with Superscript II® (Life Technologies) as recommended. Real-time RT-PCR was performed in duplicates with a 1:100 dilution of the cDNA on a MyIQ real time PCR detection system (BioRad) with the SYBR® Green PCR master mix (Applied Biosystems) as described previously^13,15. The oligonucleotide primers to examine expression of genes were as follows: ANF, forward primer 5′-[…]-3′ (SEQ. ID. No. 13), reverse primer 5′-[…]-3′ (SEQ. ID. No. 14); SERCA2a, forward primer 5′-[…]-3′ (SEQ. ID. No. 15), reverse primer 5′-[…]-3′ (SEQ. ID. No. 16); PLB, forward primer 5′-[…]-3′ (SEQ. ID. No. 17), reverse primer 5′-[…]-3′(SEQ. ID. No. 18); S100A1, forward primer 5′-[…]-3′ (SEQ. ID. No. 19), reverse primer 5′-[…]-3′ (SEQ. ID. No. 20); TGF-131, forward primer 5′-[…]-3′ (SEQ. ID. No. 21), reverse primer 5′-[…]-3′(SEQ. ID. No. 22); Collagen type I, forward primer 5′-[…]-3′ (SEQ. ID. No. 23), reverse primer 5′-AGGTGATGTTCTGGG-3′(SEQ. ID. No. 24); GRK2, forward primer 5′-[…]-3′ (SEQ. ID. No. 25), reverse primer 5′-[…]-3′ (SEQ. ID. No. 26). For normalization, 18S rRNA was used, forward primer 5′-[…]-3′ (SEQ. ID. No. 27), reverse primer 5′-GGACATCTAAGGGCATCAC-3′ (SEQ. ID. No. 28). PCR conditions were 95° C., 3 min, and 40 cycles of 95° C., 10 sec; 60.5° C., 45 sec. Specificity of PCR products were confirmed by gel electrophoresis.

[8] = test system: S100A1 mRNA expression in RCEC; experiment: Regulation of S100A1 expression in endothelial cells; assay type: cell-based, rat; conditions: 10^−7 M, 60 hours, versus PBS
Method: Regulation of S100A1 expression in HCAEC—After growing HCAEC or RCEC to 90% confluency full medium was replaced by basal EBM-2 medium with 0.5% serum and cells were stimulated with endothelin-1 (ET-1), angiotensin II (AngII) (both 10^−7 M) or PBS for 60 h. Cells were harvested for either mRNA or protein isolation and S100A1 expression was standardized against 18S rRNA or GAPDH.
RNA Isolation and Real-time RT-PCR—Total RNA was isolated from either HCAEC or […] using Trizol® (Life Technologies). cDNA was synthesized by reverse transcription of the RNA with Superscript II® (Life Technologies) as recommended. Real-time PCR was performed in duplicates with a 1:100 dilution of the cDNA on a MyIQ real time PCR detection system (BioRad) with the SYBR® Green PCR master mix (Applied Biosystems). The oligonucleotide primers to examine expression of genes were as follows: S100A1, forward primer 5′-[…]-3′ (SEQ. ID. No. 19), reverse primer 5′-[…]-3′ (SEQ. ID. No. 20). For normalization, 18S rRNA was used, forward primer 5′-[…]-3′ (SEQ. ID. No. 27), reverse primer 5′-GGACATCTAAGGGCATCAC-3′ (SEQ. ID. No. 28). PCR conditions were 95° C., 3 min, and 40 cycles of 95° C., 10 sec; 63.5° C., 45 sec. Specificity of PCR products were confirmed by gel electrophoresis.

[9] = Isoproterenol (333 ng/kg BW), 8 weeks after gene therapy in HF
[10] = basal, 8 weeks after gene therapy in HF

## NCCOB(c1ccccc1)c1ccccc1 [2-APB, 2-aminoethoxydiphenylborate]
HCAEC
  ACh-stimulated NO generation after IP3R blockage: abolished NO generation

## CC(=O)OCC[N+](C)(C)C [ACh, acetylcholine]
Mouse thoracic aorta; SKO aortas (n=6)
  maximal response to ACh: 55±6.49 % of PE-precontraction
Mouse thoracic aorta; WT control aortas (n=6)
  maximal response to ACh: 14±2.41 % of PE-precontraction
[1]; SKO mice (n=4), second value
  ACh stimulated aortic endothelial NO release: 134.5±25.3 nM NO/mg tissue
[1]; WT mice (n=4)
  ACh stimulated aortic endothelial NO release: 368.2±68.1 nM NO/mg tissue

## CNC[C@H](O)c1cccc(O)c1 [PE, phenylephrine]
Mouse thoracic aorta; Mus musculus, read-out: EC50 of the PE response (contraction)
  EC50: 300 nM

## COCCc1ccc(OCC(O)CNC(C)C)cc1 (centres unmarked) [metoprolol]
[2]; [9]
  HR: 308 ± 6^& min^−1
  LV +dP/dt: 9403 ± 491 mmHg/s
  LV −dP/dt: 5571 ± 333 mmHg/s
  LVEDP: 2.8 ± 0.4 mmHg
  LVESP: 105 ± 3.7 mmHg
[2]; basal, 8 weeks after gene therapy in HF (18 weeks post-MI)
  HR: 264 ± 8^& min^−1
[2]; [10]
  LV +dP/dt: 4948 ± 225 mmHg/s
  LV −dP/dt: 4418 ± 223 mmHg/s
  LVEDP: 4.6 ± 0.5 mmHg
  LVESP: 109 ± 3.1 mmHg
[3]; 18 week post-MI compared to pre-treatment (10 week post-MI) values
  LV chamber dilatation (LV diastolic dimension): significantly attenuated further LV chamber dilatation
[3]; HF rats, metoprolol only (with GFP)
  change in cardiac function (EF) over the 2 month treatment period: no improvement
[4]
  HW/BW ratio: 2.77 ± 0.05 g/kg
[5]
  Cell length (diastolic): 118.9 ± 2.3 μm
[6]
  contractile properties and [Ca2+]i transients of isolated failing myocytes: did not affect contractile properties
[7]
  Collagen I mRNA levels: significantly reduced
  TGFβ1 mRNA levels: significantly reduced
  ventricular ANF mRNA expression: significantly reduced
[7]; standardized to 18S rRNA
  PLB mRNA levels: attenuated the down-regulation
  SERCA2a mRNA levels: attenuated the down-regulation
  cardiac S100A1 mRNA: attenuated the down-regulation

## angiotensin II (DRVYIHPF; Angiotensin-2; UniProt P01019 25-32, looked up) [Ang II]
[8]
  S100A1 mRNA levels: significantly reduced

## endothelin-1 (CSCSSLMDKECVYFCHLDIIW; ends and bridges not checked; cysteine pairing not given here; UniProt P05305 53-73, looked up) [ET-1]
[8]
  S100A1 mRNA levels: significantly reduced
